Data reported in patent publication US7323541B2, “Polypeptide DNA thereof and use of the same” (Takeda Pharmaceutical Company Limited, priority 2001, dated 2008).
Where no end group is shown, it is not given here.

What was measured:
[1] = target: T1, rat TGR23-1 expressing CHO cells (Rattus norvegicus, UniProt P0C0L6, DEL160-160); assay: Intracellular Ca ion concentration increasing activity using FLIPR; assay type: cell-based
T1 construct: The rat TGR23-1 expressing vector was constructed by digestion of plasmid pCR2.1-rTGR23-1 with Sal I and Spe I; expressed in transfected cells; host or cells: CHO dhfr- cells, pAKKO-rTGR23-1, clone No. 34
T1 sequence (P0C0L6 with tags, fused parts or gaps DEL160-160): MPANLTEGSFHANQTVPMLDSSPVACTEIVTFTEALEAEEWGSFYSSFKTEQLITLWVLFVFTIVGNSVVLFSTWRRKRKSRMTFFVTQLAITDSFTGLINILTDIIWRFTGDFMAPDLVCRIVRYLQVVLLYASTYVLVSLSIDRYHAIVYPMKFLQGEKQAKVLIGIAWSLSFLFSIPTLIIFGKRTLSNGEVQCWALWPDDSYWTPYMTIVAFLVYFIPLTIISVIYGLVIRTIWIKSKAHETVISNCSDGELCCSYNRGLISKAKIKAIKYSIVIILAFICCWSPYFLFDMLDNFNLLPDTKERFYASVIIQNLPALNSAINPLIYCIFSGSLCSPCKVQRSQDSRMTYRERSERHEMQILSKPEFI
Method: (§1) An enhancing activity of intracellular Ca^2+ release was assayed using FLIPR (Molecular Devices, Inc.). The CHO/TGR23-2 cells prepared in Example 1 and selected in Example 2 were plated on 96-well plate at 3×10^4 cells/well and cultured for 24 hours. A loading buffer was prepared by adding 1 vial of Fluo 3-AM to 10 ml of Hanks' solution (pH7.4) containing 2.5 mM Probenecid and 20 mM HEPES (hereafter, Hanks' solution (pH7.4) containing 2.5 mM Probenecid and 20 mM HEPES may be referred to as a washing buffer). The culture medium was discarded from the culture plate and 100 μl/well of the loading buffer were added to the cells. Then, the cells were incubated for 60 minutes in the incubator. After the loading buffer was removed from the culture plate and the cells were washed with the washing buffer, the plate was put in place of FLIPR. A sample was prepared by adding a sample buffer, which 2 mg/ml BSA and 1 mg/ml CHAPS were added to the washing buffer, to lyophilized product, stirring and treating by ultrasonication for 30 minutes, and transferred to 96-well sample plate. This sample plate was also put in place for assay. The enhancing activity of intracellular Ca^2+ release was measured as an increase of fluorescent intensity, which is raised by addition of the sample.
(§2) The rat TGR23-2 ligand (1-18) having various concentrations was administered in accordance with the method described in Example 5, to the CHO cells, in which rat TGR23-1 and rat TGR23-5 are expressed. Subsequently, the intracellular Ca ion concentration increasing activity was measured using FLIPR.

[2] = target: T2, rat TGR23-5 expressing CHO cells (Rattus norvegicus, UniProt P0C0L6); assay: as above; assay type: cell-based
T2 construct: expressed in transfected cells; host or cells: CHO dhfr- cells, pAKKO-rTGR23-5, clone No. 29
T2 sequence (P0C0L6 1-372): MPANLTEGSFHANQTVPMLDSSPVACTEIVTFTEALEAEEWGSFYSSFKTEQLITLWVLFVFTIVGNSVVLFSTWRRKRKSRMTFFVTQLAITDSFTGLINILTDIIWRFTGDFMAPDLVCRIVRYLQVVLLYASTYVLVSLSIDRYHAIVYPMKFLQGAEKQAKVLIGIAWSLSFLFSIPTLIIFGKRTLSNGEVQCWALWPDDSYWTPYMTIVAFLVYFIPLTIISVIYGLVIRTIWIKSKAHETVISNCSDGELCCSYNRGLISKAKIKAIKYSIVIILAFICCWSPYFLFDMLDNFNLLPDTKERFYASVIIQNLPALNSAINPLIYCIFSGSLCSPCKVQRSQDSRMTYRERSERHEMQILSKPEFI
Method: as §1, §2

[3] = Feeding level after administration into rat lateral ventricle; assay type: in vivo, Wistar rats; conditions: 10 nmol/rat, at 1.5 hours and two hours after administration, vs distilled water group, p<0.05
Method: Effects on the feeding level by administration of the human TGR23-2 ligand (1-20) into rat lateral ventricle were studied.
Rats were bred for lightning hours from eight to twenty o'clock at 25° C. Male Wistar rats at eight weeks old (260 through 280 g of weight at the time of operation) were anesthetized with 50 mg/kg of pentobarbital, i.p., and each rat was immobilized in a rat brain stereotaxic apparatus. The incisor bar was set 3.3 mm lower from the interaural line. The skull was exposed, and using a dental drill a hole was made on the bone for implantation of a guide cannula AG-8 (0.4 mm inner diameter, 0.5 mm outer diameter, EICOM Co., Ltd.). In addition, three anchor screws were buried around the hole. A stainless-steel guide cannula, AG-8 was inserted in such a manner that its tip would be situated in the upper part of the lateral ventricle. Following the atlas of Paxinos and Watson (1986), the stereotaxic coordinates were set to AP: −0.8 mm, L: 1.5 mm, and H: −4.5 mm from the bregma. The guide cannula was secured to the skull using an instant adhesive, dental cement and anchor screws. […]
For about one week after embedding of guide cannula, rats were bred to be postoperatively recuperative and be naturalized to powder feed. […] Feeding level after infusion was measured with time using Feed-Scale (Columbus) every 30 minutes until four hours after administration.

| Sequence | intracellular Ca ion concentration increasing activity ([1]; rat TGR23-1 expressing CHO cells) | EC50 ([1]; rat TGR23-1 expressing cells, calculated from graph FIG. 27) [nM] | intracellular Ca ion concentration increasing activity ([2]; rat TGR23-5 expressing CHO cells) | EC50 ([2]; rat TGR23-5 expressing cells, calculated from graph FIG. 28) [nM] | feeding level [3] |
| --- | --- | --- | --- | --- | --- |
| SFRNGVGSGVKKTSFRRA [rat TGR23-2 ligand (1-18), Ser-Phe-Arg-Asn-Gly-Val-Gly-Ser-Gly-Val-Lys-Lys-Thr-Ser-Phe-Arg-Arg-Ala] | the intracellular Ca ion level increased depending on the concentration of this ligand | 0.19 | the intracellular Ca ion level increased depending on the concentration of this ligand | 14 | – |
| SFRNGVGTGMKKTSFQRAKS [human TGR23-2 ligand (1-20)] | – | – | – | – | significant decrease of feeding level |
